The values below come from PubChem BioAssay AID248 (DTP/NCI, 2004).

The test system of the assay is L1210 leukemia ip in BDF1 mice, survival T/C. Briefly: NCI In Vivo Anticancer Drug Screen. Data for tumor model L1210 Leukemia (intraperitoneal) in B6D2F1 (BDF1) mice. To be noted: endpoint: mean survival time, higher = longer survival. In short, it runs like this: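 Transplanted-tumor mice were given test agent; controls received vehicle only. Survival readings from the two groups were divided (treated over control).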

Setting [1] is: dose: 100.0 mg/kg/injection, schedule: Q01DX001 (ip), vehicle: saline with Tween-80.
The mark [2] stands for this setting: dose: 100.0 mg/kg/injection, schedule: Q01DX009 (ip), vehicle: saline with Tween-80.
Setting [3] is: dose: 100.0 mg/kg/injection, schedule: Q04DX002 (ip), vehicle: saline with Tween-80.
[4] abbreviates: dose: 200.0 mg/kg/injection, schedule: Q01DX001 (ip), vehicle: saline with Tween-80.
Where [5] appears, read: dose: 200.0 mg/kg/injection, schedule: Q01DX009 (ip), vehicle: saline with Tween-80.
The mark [6] stands for this setting: dose: 200.0 mg/kg/injection, schedule: Q04DX002 (ip), vehicle: saline with Tween-80.
The mark [7] stands for this setting: dose: 200.0 mg/kg/injection, schedule: Q04DX003 (ip), vehicle: saline with Tween-80.
Where [8] appears, read: dose: 400.0 mg/kg/injection, schedule: Q01DX001 (ip), vehicle: saline with Tween-80.
Setting [9] is: dose: 400.0 mg/kg/injection, schedule: Q04DX002 (ip), vehicle: saline with Tween-80.
[10] abbreviates: dose: 400.0 mg/kg/injection, schedule: Q04DX003 (ip), vehicle: saline with Tween-80.
Where [11] appears, read: dose: 50.0 mg/kg/injection, schedule: Q01DX001 (ip), vehicle: saline.
Where [12] appears, read: dose: 100.0 mg/kg/injection, schedule: Q01DX001 (ip), vehicle: saline.
The mark [13] stands for this setting: dose: 200.0 mg/kg/injection, schedule: Q01DX001 (ip), vehicle: saline.
The mark [14] stands for this setting: dose: 400.0 mg/kg/injection, schedule: Q01DX001 (ip), vehicle: saline.
[15] abbreviates: dose: 100.0 mg/kg/injection, schedule: Q04DX003 (ip), vehicle: saline with Tween-80.
Setting [16] is: dose: 400.0 mg/kg/injection, schedule: Q01DX009 (ip), vehicle: saline with Tween-80.
The mark [17] stands for this setting: dose: 400.0 mg/kg/injection, schedule: Q01DX001 (ip), vehicle: carboxymethylcellulose (CMC).
Where [18] appears, read: dose: 100.0 mg/kg/injection, schedule: Q01DX001 (ip), vehicle: carboxymethylcellulose (CMC).
[19] abbreviates: dose: 200.0 mg/kg/injection, schedule: Q01DX001 (ip), vehicle: carboxymethylcellulose (CMC).

Each structure is given as a SMILES string. Where “and” joins values, the source holds several entries; their conditions need not be identical. Equal values may be shown once. Inconclusive results and toxic doses are left out.

`Nc1nc(NCCCc2ccccc2)c(N=Nc2ccccc2)c(=O)[nH]1`: the T/C is 106 % of control under setting [1]; 98 % of control and 100 % of control under setting [2]; 94 % of control under setting [3]; 107 % of control under setting [4]; 93 % of control and 98 % of control under setting [5]; 93 % of control and 89 % of control under setting [6]. Also, the T/C under setting [7] is 86 % of control; the T/C under setting [8] was 104 % of control; the T/C under setting [9] was 94 % of control and 89 % of control; the T/C under setting [10] is 86 % of control.
For `CN(N=O)c1ccccc1`, the T/C reads like this: under setting [11], 93 % of control; under setting [12], 93 % of control; under setting [13], 98 % of control; under setting [14], 102 % of control.
Consider `Cn1cc2c(=O)n(OS(=O)(=O)c3ccccc3)c(=O)[nH]c2n1`, for which the T/C was 106 % of control under setting [11], 93 % of control under setting [12], 106 % of control under setting [13] and 100 % of control under setting [14].
As for `COc1ccc(Cl)cc1NC(=O)N/N=C(\C)CC(C)C`, the T/C runs as follows: under setting [2], 91 % of control; under setting [15], 97 % of control; under setting [5], 91 % of control; under setting [7], 101 % of control; under setting [10], 101 % of control.
On to `CNC(=O)Oc1ccc(C(=O)OC)cc1`, for which the T/C was 93 % of control under setting [12], 90 % of control under setting [13] and 122 % of control under setting [14].
Regarding `COC(=O)C(Cc1ccccc1)NC(=O)C(COC1OC(COC(C)=O)C(OC(C)=O)C(OC(C)=O)C1NC(C)=O)NC(=O)OCc1ccccc1` (stereo not drawn), the T/C (dose: 50.0 mg/kg/injection, schedule: Q04DX002 (ip), vehicle: Klucel (hydroxypropylcellulose) (HPC)) was 101 % of control; the T/C (dose: 100.0 mg/kg/injection, schedule: Q04DX002 (ip), vehicle: Klucel (hydroxypropylcellulose) (HPC)) is 104 % of control; the T/C (dose: 200.0 mg/kg/injection, schedule: Q04DX002 (ip), vehicle: Klucel (hydroxypropylcellulose) (HPC)) was 101 % of control.
Take `CCOC(=O)C(O)(CC)c1ccncc1Br` (stereo not drawn): the T/C runs as follows: (dose: 75.0 mg/kg/injection, schedule: Q04DX003 (ip), vehicle: Klucel (hydroxypropylcellulose) (HPC)) 95 % of control; (dose: 100.0 mg/kg/injection, schedule: Q01DX001 (ip), vehicle: Klucel (hydroxypropylcellulose) (HPC)) 102 % of control; (dose: 150.0 mg/kg/injection, schedule: Q04DX003 (ip), vehicle: Klucel (hydroxypropylcellulose) (HPC)) 91 % of control; (dose: 200.0 mg/kg/injection, schedule: Q01DX001 (ip), vehicle: Klucel (hydroxypropylcellulose) (HPC)) 102 % of control; (dose: 300.0 mg/kg/injection, schedule: Q04DX003 (ip), vehicle: Klucel (hydroxypropylcellulose) (HPC)) 101 % of control; (dose: 400.0 mg/kg/injection, schedule: Q01DX001 (ip), vehicle: Klucel (hydroxypropylcellulose) (HPC)) 112 % of control.
As for `CCOC(=O)CCN(CCC(=O)OCC)C(C)C`, the T/C was 100 % of control under setting [2]; 101 % of control under setting [15]; 90 % of control under setting [5]; 101 % of control under setting [7]; 98 % of control under setting [16]; 101 % of control under setting [10].
Take `CN(C(=O)COc1ccc(N2C(N)=NC(N)=NC2(C)C)cc1Cl)c1ccc(S(=O)(=O)F)cc1`: the T/C under setting [1] was 112 % of control, the T/C under setting [4] is 102 % of control and the T/C under setting [8] is 105 % of control.
Consider `O=C(Nc1ccc([N+](=O)[O-])cc1O)c1ccccc1`, for which the T/C was 92 % of control under setting [15] and 92 % of control under setting [7].
As to `O=C1C(c2ccccc2)=S=C2Sc3ccccc3N12`, the T/C (dose: 100.0 mg/kg/injection, schedule: Q01DX009 (ip), vehicle: Klucel (hydroxypropylcellulose) (HPC)) is 90 % of control.
For the compound `Cc1cc(NC(=O)N(CCCl)N=O)c(C)cc1NC(=O)c1ccccc1`, the T/C is 124 % of control (dose: 4.2 mg/kg/injection, schedule: Q01DX009 (ip), vehicle: carboxymethylcellulose (CMC)); 111 % of control (dose: 9.6 mg/kg/injection, schedule: Q01DX001 (ip), vehicle: carboxymethylcellulose (CMC)); 186 % of control (dose: 14.0 mg/kg/injection, schedule: Q01DX009 (ip), vehicle: other); 196 % of control (dose: 22.0 mg/kg/injection, schedule: Q01DX009 (ip), vehicle: other); 213 % of control (dose: 33.0 mg/kg/injection, schedule: Q01DX009 (ip), vehicle: other); 180 % of control (dose: 50.0 mg/kg/injection, schedule: Q01DX009 (ip), vehicle: carboxymethylcellulose (CMC)). The T/C (dose: 58.0 mg/kg/injection, schedule: Q01DX009 (ip), vehicle: carboxymethylcellulose (CMC)) was 175 % of control; the T/C (dose: 75.0 mg/kg/injection, schedule: Q01DX001 (ip), vehicle: carboxymethylcellulose (CMC)) is 159 % of control; the T/C (dose: 75.0 mg/kg/injection, schedule: Q01DX009 (ip), vehicle: carboxymethylcellulose (CMC)) was 193 % of control; the T/C (dose: 88.0 mg/kg/injection, schedule: Q01DX009 (ip), vehicle: carboxymethylcellulose (CMC)) is 190 % of control; the T/C (dose: 120.0 mg/kg/injection, schedule: Q01DX001 (ip), vehicle: carboxymethylcellulose (CMC)) was 150 % of control; the T/C (dose: 132.0 mg/kg/injection, schedule: Q01DX009 (ip), vehicle: carboxymethylcellulose (CMC)) is 228 % of control. In addition, the T/C is, setting by setting: (dose: 177.0 mg/kg/injection, schedule: Q01DX001 (ip), vehicle: carboxymethylcellulose (CMC)) 153 % of control; (dose: 200.0 mg/kg/injection, schedule: Q01DX009 (ip), vehicle: carboxymethylcellulose (CMC)) 163 % of control; (dose: 266.0 mg/kg/injection, schedule: Q01DX001 (ip), vehicle: carboxymethylcellulose (CMC)) 162 % of control; (dose: 266.0 mg/kg/injection, schedule: Q01DX001 (ip), vehicle: other) 91 % of control; under setting [17], 245 % of control; (dose: 600.0 mg/kg/injection, schedule: Q01DX001 (ip), vehicle: carboxymethylcellulose (CMC)) 219 % of control.
With `C=C(Cl)c1c(C)cc(C)c(CC#N)c1C`, the T/C (dose: 12.5 mg/kg/injection, schedule: Q01DX009 (ip), vehicle: DMSO) is 92 % of control; the T/C (dose: 12.5 mg/kg/injection, schedule: Q04DX003 (ip), vehicle: DMSO) was 87 % of control; the T/C (dose: 25.0 mg/kg/injection, schedule: Q01DX009 (ip), vehicle: DMSO) is 92 % of control; the T/C (dose: 25.0 mg/kg/injection, schedule: Q04DX003 (ip), vehicle: DMSO) is 93 % of control; the T/C (dose: 50.0 mg/kg/injection, schedule: Q04DX003 (ip), vehicle: DMSO) was 93 % of control; the T/C (dose: 200.0 mg/kg/injection, schedule: Q04DX003 (ip), vehicle: DMSO) was 87 % of control.
For `CCN(CC)c1ccc(N=Cc2cc(=O)n(C)c3ccccc23)cc1`, the T/C is, setting by setting: under setting [18], 101 % of control; under setting [19], 90 % of control; under setting [17], 88 % of control.
Regarding `NC(=S)c1ccncc1`, the T/C by setting is: under setting [2], 104 % of control; under setting [15], 103 % of control; under setting [5], 104 % of control; under setting [7], 109 % of control; under setting [16], 112 % of control; under setting [10], 101 % of control.
Take `O=S1(=O)CN2C=CC=CC2=N1`: the T/C by setting is: under setting [3], 113 % of control; under setting [6], 91 % of control; under setting [9], 109 % of control.
On to `COc1ccc(C(=O)CCCC(=O)O)cc1`, for which the T/C (dose: 50.0 mg/kg/injection, schedule: Q01DX001 (ip), vehicle: carboxymethylcellulose (CMC)) was 105 % of control; the T/C under setting [18] is 100 % of control; the T/C under setting [19] is 111 % of control; the T/C under setting [17] is 105 % of control.
Regarding `Fc1ccc(C=Nc2cccc(Cl)c2)cc1`, the T/C runs as follows: under setting [2], 95 % of control; under setting [15], 103 % of control; under setting [5], 97 % of control; under setting [7], 93 % of control; under setting [16], 100 % of control; under setting [10], 98 % of control.
